Here are results for two compounds from patent publication US20090197279A1, “MICROTUBULE SYNTHESIS AS A BIOMARKER” (KINEMED, INC., priority 2005, published 2009).

Data set [1] deals with hippocampal tubulin dimers and tau-associated, tau-nonassociated (MAP2/STOP) and cold-stable microtubules. Kind of data set: 2H label incorporation into hippocampal tubulin dimers and microtubule fractions after ICVC infusion (2H2O labeling, GC/MS). It is filed as in vivo, mouse. The method, then:
In (A) and (B), mice received ICVC infusions of 6 μl water alone or containing 0.48 nmol glutamate (80 μM in the infusate), or glutamate plus 0.66 pmol Rp-cAMP (110 nM in the infusate). Animals were then labeled with ^2H2O for 8 hours (A) or 24 hours (B). At sacrifice, the hippocampal post-nuclear supernatant was fractionated as show in FIG. 5A; a separate aliquot was used for isolation of cold stable (CS) MTs (FIG. 5D). Glutamate injection stimulated label incorporation into new MAP2/STOP-MTs at 8 and 24 hours, and CS MTs at 24 hours; both were blocked by Rp-cAMP. In order to correct the effects of pharmacologic intervention on MT dynamics for the confounding changes in tubulin synthesis, the numbers above each bar express ^2H label incorporation into MT as a percentage of ^2H labeling in the corresponding tubulin dimer fractions. (C) Dose dependence of glutamate effects. ^2H2O labeling was initiated at time zero, 6 μl ICVC infusions with the indicated concentrations of glutamate were performed at 24 hours, and labeling was continued until sacrifice at 48 hours (24 hours post glutamate infusion). Hippocampal MTs were fractionated into tau-associated, MAP2-associated, and non-associated (STOP-associated) MT fractions, as in FIG. 5A. In all experiments, bars represent % new tubulin (mean±SD, n=3).
Tubulin was purified using minor modifications of protocols described previously (Fanara, P., Oback, B., Ashman, K., Podtelejnikov, A., Brandt, R. Identification of MINUS, a small polypeptide that functions as a microtubule nucleation suppressor. EMBO J. 18, 565-577 (1999); Fanara, P. et al. In vivo measurement of microtubule dynamics using stable isotope labeling with heavy water. Effect of taxanes. J. Biol. Chem. 279, 49940-49947 (2004). Briefly, cultured neurons were gently scraped off culture plates, washed in phosphate-buffered saline (PBS), and homogenized in microtubule-stabilizing buffer. For purification ex vivo, mice were anesthetized with isoflurane and euthanized by cervical dislocation. Brains were rapidly removed and washed in microtubule-stabilizing buffer (MSB); hippocampi were dissected and gently homogenized in MSB. To separate cytosolic tubulin dimers from microtubule polymers, post-nuclear supernatants were centrifuged at 190,000×g at 20° C. for 35 min. The supernatant or non-microtubule fraction (containing the soluble dimeric tubulin) was separated from the pellet or microtubule fraction (containing polymeric tubulin), quick-frozen and stored at −20° C. Microtubule pellets were further fractionated by sequential immunoaffinity chromatography steps (FIG. 3). In order to isolate tau-associated microtubules, TAU5 antibody was covalently coupled to epoxy-activated Sepharose beads (Amersham Pharmacia Biotech) at a concentration of 0.25 mg/ml. Approximately 0.2 mg of the microtubule pellet was incubated with TAU-5 beads in 0.5 ml MSB for 1 hour at room temperature. Unbound material was removed, the beads were washed three times in 0.5 ml of MSB, and bound material was eluted in 0.5 ml MSB containing 1M NaCl. In some experiments, MAP2-associated microtubules were captured from the TAU5-unbound material by immunoaffinity chromatography on epoxy-activated Sepharose beads coupled to MAP2 antibody (0.5 mg antibody per ml beads) using the same protocol. The relative abundance of tubulin in each preparation (Tubulin dimers and TAU5-bound, MAP2-bound, and unbound microtubule fractions) was quantified by Western blot, and tubulin from these fractions was further purified by ion exchange and size exclusion chromatography, as previously described (Fanara, P. et al. In vivo measurement of microtubule dynamics using stable isotope labeling with heavy water. Effect of taxanes. J. Biol. Chem. 279, 49940-49947 (2004)). […]

In data set [2] the test system is total hippocampal proteins. Kind of data set: Fractional synthesis of total hippocampal proteins. It is filed as in vivo, mouse. The note with it: coadministration of 0.66 pmol Rp-cAMP with glutamate. The method, then:
FIG. 7 depicts the effects of ICV glutamate on the relative amounts of MT subpopulations and on total protein synthesis in murine hippocampus. (A, B) Tubulin abundances are measured by Western blot analysis for α-tubulin at 8 hour (A) and 24 hours (B). Subpopulations were total extract (total), free tubulin dimers, tau-associated MTs, tau-nonassociated (MAP2/STOP) MTs and cold stable (CS) MTs. Mock and glutamate infused ICVC mice are shown (cf. FIGS. 6A and B). […] (C) Fractional synthesis of total hippocampal proteins. Glutamate increased protein synthesis versus mock-treated animals (*p<0.01); this effect was blocked by coadministration with 0.66 pmol of Rp-cAMP (**p<0.02).
This hypothesis had not previously been tested in the living brain, however. To test this hypothesis, we used the methods of the invention disclosed herein. Mice were infused with 6 μl water containing 0.48 nmol glutamate (80 μM in the infusate), or glutamate plus 0.66 pmol Rp-cAMP (110 nM in the infusate). Label incorporation into hippocampal tubulin dimers and into microtubule polymers was then quantified after administration of ^2H2O for 8 hours or 24 hours (FIGS. 7A and 7B). […] These findings further strengthen the previously reported correlation between hippocampus glutamate NMDA receptor-dependent learning (long-term potentiation) and protein synthesis (Kandel, E. R. The molecular biology of memory storage: a dialogue between genes and synapses. Science 294, 1030-1038 (2001)). By the same criterion, the glutamate-induced program of changes in hippocampal microtubule dynamics shown in FIGS. 6 and 7 also alters hippocampal total protein synthesis in vivo (data not show), further supporting the capacity of the invention disclosed herein to generate a biochemical record of basic neuroanatomic connectivity in the brain and thereby to reveal the dynamics of synaptogenesis in vivo.

A short description of data set [3]: Toxicity of maintained body water 2H2O enrichment. Type of data set: in vivo. Particulars: 1-10% of total body water labeled, maintained for weeks or months; >100 human subjects. The source says: Relatively high body water enrichments of ^2H2O (e.g., 1-10% of the total body water is labeled) may be achieved relatively inexpensively using the techniques of the invention. […] This finding in a large number of human subjects (>100 people) is contrary to previous concerns about vestibular toxicities at high doses of ^2H2O. One of the Applicants has discovered that as long as rapid changes in body water enrichment are prevented (e.g., by initial administration in small, divided doses), high body water enrichments of ^2H2O can be maintained with no toxicities. For example, the low expense of commercially available ^2H2O allows long-term maintenance of enrichments in the 1-5% range at relatively low expense (e.g., calculations reveal a lower cost for 2 months labeling at 2% ^2H2O enrichment, and thus 7-8% enrichment in the alanine precursor pool, than for 12 hours labeling of ^2H-leucine at 10% free leucine enrichment, and thus 7-8% enrichment in leucine precursor pool for that period).

Each structure is given as a SMILES string.

In the case of `Nc1ncnc2c1ncn2[C@@H]1O[C@@H]2COP(O)(=S)O[C@H]2[C@H]1O` (single isomer, unassigned) [Rp-cAMP, adenosine-3′,5′-monophosphorothioate, Rp-isomer], the “glutamate-stimulated label incorporation into new MAP2/STOP-MTs” value in data set [1] (0.48 nmol glutamate plus 0.66 pmol Rp-cAMP ICVC, 8 and 24 hours) was “blocked”. For the same compound, the “glutamate-stimulated label incorporation into CS MTs” value in data set [1] (0.48 nmol glutamate plus 0.66 pmol Rp-cAMP ICVC, 24 hours) was “blocked”. In data set [1] (glutamate plus 0.66 pmol Rp-cAMP, 24 hours), the “fractional synthesis of tubulin dimers and microtubules” value was “significantly blocked”. Besides, the “glutamate-induced increase in total hippocampal protein synthesis” value in data set [2] is on record as “blocked”.

On to `[2H]O[2H]` [^2H2O], for which the toxicity result in data set [3] is given as “without any evidence of toxicity”.
